The source of these data is patent US11179380B2, “Compounds and compositions for use in treating psoriasis” (SOLVOTRIN THERAPEUTICS LTD, priority 2017, dated 2021).

One data set is described as follows: physchem. The conditions noted are these: for Rm: calculated from Rf; for Extrapolated Rm (y value): theoretical Rm at 0% organic modifier. On the procedure:
The partition coefficient (P) is used to describe the lipophilicity of a drug. It is defined as the ratio of equilibrium concentrations of a drug in an organic phase (Corg) and an aqueous phase (Caq).
Most commonly the organic solvent is n-octanol and the other solvent is water. Hydrophobic molecules will have a high P value while hydrophilic molecules will have a low P value.
Rm values were calculated from Rf values that were obtained at three different mobile phase compositions (40, 50 and 60% MeOH in water).
The Rm value was calculated using the following equation: […]
The theoretical Rm value at 0% organic modifier was calculated by extrapolating from the calibration curves that were obtained. These values were then correlated to the literature log P of two reference compounds (methyl benzoate and paracetamol).

For data set [1] the following is noted: literature log P of reference compounds; cited from earlier work.
In the next data set the test system is Aldara-treated mice. In words: Aldara-induced model of psoriasis in mice, clinical scoring (PASI). Format: in vivo, mice (C57BL/6J). The conditions noted are these: for inflammation in the mouse psoriasis model: summary statement in RESULTS. On the procedure: Specific Pathogen-Free female C57BL/6J strain mice, 6-8 weeks of age, were obtained from a commercial supplier and bred in-house (JAX, Charles River). Mice were fed irradiated diet and housed in individually ventilated cages (Tecniplast, UK) under positive pressure. All animal experiments were performed in compliance with the Health Products Regulatory Authority and approved by the Trinity College Dublin's BioResources ethical review board.
The Aldara-induced model of psoriasis was used (Flutter and Nestle, 2013; Morwietz, 2015; Russell et al., 2013; van der Fits et al., 2009). The dorsal skin of mice was shaved and depilated on day −1. Mice were that were in the telogen phase (resting phase) of the hair cycle were chosen for experiments. Mice with visual skin damage from shaving were excluded. Mice were then randomly divided into groups for treatment with topical application of vehicle (white petroleum jelly) or Solvotrin test compounds, prepared in white petroleum jelly. On day 0, mice were scored for disease signs, as per below. After which 62.5 mg of Aldara™ cream (5% Imiquimod; MEDA Pharmaceuticals) was applied to a defined area of the shaved dorsal skin surface. Thirty minutes after the Aldara application, test compounds or vehicle was applied to the dorsal flank, to cover the entire Aldara-challenged surface, with an even layer of the white petroleum. This process was repeated for a further 5 days. Mice were scored daily. On day 6 the mice were euthanized for tissue collection.
The skin of mice was scored for signs of psoriasis-like inflammation for a total of 7 days, (i.e. days 0-6), as described (van der Fits et al., 2009). Mice were scored according to 3 parameters: erythema (the redness of skin); thickening of the skin; and scaling (dryness and flaking of the skin). For each parameter, the mice were scored on a scale from 0-4. Mice with no pathology were scored 0. Mice with mild pathology scored 1. […] The total, or Psoriasis Area and Severity Index (PASI), score was the cumulative score of all three parameters. Therefore for each mouse studied the PASI score can range between 0 to 12.
Power calculations on data from previous studies have shown that a sample size of at least 6 will detect significant difference (P<0.05) in PASI scores between groups. ANOVA and Dunnett Multiple Comparison Test determined statistical differences between multiple groups. Two tailed Student's t-test was used to compare statistical differences between two groups.
Unless otherwise specified percentage concentration of a test compound in a composition refers to the weight percent of said test compound in the composition. For example, application of 2% compound X, means application of a composition comprising 2 weight percent of compound X.

The subject of data set [2] is Peripheral Blood Mononuclear Cells (PBMCs). Put plainly: Cytokine-expressing cells in stimulated PBMC (anti-CD3, PMA and ionomycin), flow cytometry. Format: cell-based, human. On the procedure:
PBMC were isolated from leukocyte-enriched buffy coats obtained from anonymous healthy donors with consent from the Irish Blood Transfusion Service, St James' Hospital, Dublin, Ireland. PBMC were pre-treated with test compounds or a vehicle control at the indicated concentrations for 6 hours prior to stimulation by anti-CD3 for 4 days and re-stimulated with PMA and ionomycin for 6 hours. Thereafter cells were counted using flow cytometry.
(In general: A flow cytometer gives signals particle by particle.)

A further data set deals with Primary human DC. In words: Cytokine concentrations in LPS-stimulated monocyte-derived dendritic cells, ELISA. Conditions: LPS 24 hours. The format is cell-based. The method, then: Primary human DC were produced from CD14+ monocytes isolated from healthy human PBMC via magnetic cell sorting. Monocyte-derived DC were pre-treated with test compounds or a vehicle control for 6 hours prior to stimulation by LPS for 24 hours. Cytokine concentrations in cell supernatants were determined by ELISA (eBiosciences).
On the technique in general: An ELISA detects its analyte on a solid surface through an enzyme-linked reagent.

A further data set concerns normal healthy skin. In words: Assessment of erythema and itchiness after topical application to shaved forearm. The format is in vivo. The conditions noted are these: for temporal erythema response: 5% in petroleum jelly. The method, then:
Test article dispersed in petroleum jelly was applied to a 2×2 cm patch of shaved forearm (n=3). At specified time intervals the degree of erythema was recorded by blinded observers on a scale of 1-4 (n=3). Itchiness was observed by scratching behaviour also by blinded observers on a scale of 1-4. The time course of erythema resolution was recorded at 30 minute intervals.

Another data set relates to IMQ on mouse skin. Conditions: topical; cited from earlier work.
Where [3] appears, read: 3% in petroleum jelly, relative to Vehicle, statistically significant (P<0.05) only on day 3.
Setting [4] is: 3% in petroleum jelly, vs Vehicle.
[5] abbreviates: activated T-cells, various concentrations.
Where [6] appears, read: in petroleum jelly (concentration not given), vs Vehicle.

Molecules are shown by their SMILES.

As a reminder, the chromatographic logP is lipophilicity estimated from chromatographic retention. A high value points to higher lipophilicity.

Take `COC(=O)c1ccccc1` [Methyl Benzoate, methyl benzoate, reference compound]: in “physchem”, the “Log P (calculated)” value was 2.2 and the “Extrapolated Rm (y value)” value is 1.845. In the data set “physchem” (40% MeOH in water), the Rf was 0.1460 and the Rm is 0.7671. Besides, in the data set “physchem” (50% MeOH in water), the Rf was 0.1867 and the Rm was 0.6391. In the data set “physchem” (60% MeOH in water), the Rf turned out to be 0.3600 and the Rm is 0.2499. Also, the “Log P (ref)” value in data set [1] was 2.2 (1).

Turning to `CC(=O)Nc1ccc(O)cc1` [Paracetamol, paracetamol, reference compound], the Rf in the data set “physchem” (40% MeOH in water) was determined as 0.5460; in “physchem” (50% MeOH in water), 0.6270; in “physchem” (60% MeOH in water) it was 0.7460. Moreover, the values for the Rm in the data set “physchem” (40% MeOH in water), in “physchem” (50% MeOH in water) and in the data set “physchem” (60% MeOH in water) were −0.0801, −0.2256 and −0.4679, respectively. Also, the “Extrapolated Rm (y value)” value in “physchem” is 0.7116. Further, in data set [1], the “Log P (ref)” value is reported as 0.48 (2).

In the case of `CC(=O)Oc1ccccc1C(=O)OC1COC2C(OC(=O)c3ccccc3O)COC12` (centres unmarked) [ST0701, Isosorbide-2-aspirinate-5-salicylate], the PASI scores entry with Aldara-treated mice (setting [3]) is on record as “reduced the PASI scores”. In the data set with Aldara-treated mice (setting [4]), the erythema entry was “reduced levels of elevated skin thickness and erythema”; the skin thickness entry is “reduced levels of elevated skin thickness”. For the same molecule, in the data set with Aldara-treated mice, the “inflammation in the mouse psoriasis model” value is on record as “did not inhibit inflammation”.

Turning to `CC(=O)Oc1ccccc1C(=O)O[C@H]1COC2C1OC[C@H]2OC(=O)c1cccnc1` (some centres unmarked) [ST0702, Isosorbide-2-aspirinate-5-nicotinate], the PASI scores result with Aldara-treated mice (0.5% topical, relative to Vehicle-treated mice) was “significantly lower on days 3 (P<0.05) and 4 (P<0.01)”. Also, in the data set on Aldara-treated mice (0.5 or 5% topical, vs Vehicle), the erythema score result is “significant, and dose-dependent, reductions”; the scaling score result is “significant, and dose-dependent, reductions”; the skin thickness score result is “significant, and dose-dependent, reductions”. Further, the “efficacy in the ALDARA model” value with Aldara-treated mice (2%) is “effective”. Moreover, the “skin inflammation (PASI score)” value in the data set with Aldara-treated mice (higher dose (5%) topical, vs Vehicle) is “reduced skin inflammation on days 3-5 (P<0.01-0.001)”. Besides, the “progressive development of psoriasis-like skin inflammation” value with Aldara-treated mice (topical in white petroleum jelly, two separate experiments (3%; 0.5 or 5%), vs Vehicle) is given as “significantly (P<0.05-0.001) reduced”. In “physchem”, the chromatographic logP came to 4.1 and the “Extrapolated Rm (y value)” value is 3.0977. Further, in the data set “physchem” (40% MeOH in water), the Rf came to 0.0460 and the Rm is given as 1.3168. In the data set “physchem” (50% MeOH in water), the Rf is given as 0.1200 and the Rm was 0.8653. Also, in “physchem” (60% MeOH in water), the Rf is recorded as 0.2730 and the Rm is 0.4254. The “number of IL-17 expressing cells” value in data set [2] is given as “inhibitory effect”. In data set [2] (50 μM), the “percentage of TNF-alpha expressing cells” value was “reduced”. Besides, in data set [2] (setting [5]), the GM-CSF result is “appreciable effect” and the IL-2 entry is “not to have any appreciable effect”. In data set [2] (in comparison to control), the “percentage of IFN-gamma expressing cells” value is recorded as “significantly reduced”. In the data set with Primary human DC, the IL-10 result was “no appreciable effect”. Moreover, the “cumulative irritancy score (irritancy/erythema)” value with normal healthy skin (2%) is given as “did not cause irritancy/erythema”. Besides, the erythema/irritation entry with normal healthy skin (2% in petroleum jelly, 1 hour after application) is on record as “did not cause erythema/irritation”. In addition, in the data set on normal healthy skin, the temporal erythema response entry is listed as “resolved rapidly”.

Consider `O=C(O[C@@H]1CO[C@H]2[C@@H]1OC[C@@H]2OC(=O)c1ccccc1O)c1cccnc1` [ST0702Sal, Isosorbide-2-salicylate-5-nicotinate], for which the PASI scores entry in the data set with Aldara-treated mice (in petroleum jelly (concentration not given), relative to Vehicle, days 4, 5 and 6) is “significantly reduced”. In addition, in the data set on Aldara-treated mice (setting [6]), the Aldara-induced scaling entry is “significantly (P<0.001) reduced”, the erythema entry was “not altered” and the skin thickness result was “not altered”.

Consider `CC(=O)Oc1ccccc1C(=O)O[C@H]1CO[C@H]2[C@@H]1OC[C@H]2OC(=O)c1ccncc1` [ST0703, Isosorbide-2-aspirinate-5-isonicotinate], for which the PASI scores entry in the data set on Aldara-treated mice (setting [3]) was “reduced the PASI scores”. Besides, in the data set with Aldara-treated mice (setting [4]), the erythema result was “reduced levels of elevated skin thickness and erythema”; the skin thickness result is “reduced levels of elevated skin thickness”. The “inflammation in the mouse psoriasis model” value with Aldara-treated mice was “did not inhibit inflammation”.

For `C=C1/C(=C\C=C2/CCC[C@]3(C)[C@@H]([C@H](C)/C=C/[C@@H](O)C4CC4)CC[C@@H]23)C[C@@H](O)C[C@@H]1O` [calcipotriol], the “cumulative irritancy score (irritancy/erythema)” value with normal healthy skin (0.005%) is “did cause erythema”. Moreover, in the data set on IMQ on mouse skin, the “IMQ-induced increased thickness of epidermal and subcutaneous tissue” value was “exacerbated”; the thickness reduction entry was “ineffective”.

Take `C[C@H]1C[C@H]2[C@@H]3CCC4=CC(=O)C=C[C@]4(C)[C@@]3(F)[C@@H](O)C[C@]2(C)[C@@]1(O)C(=O)CCl` [clobetesol]: the thickness reduction result with IMQ on mouse skin is recorded as “best”.

`O=C(O)c1cccnc1` [niacin]: the temporal erythema response entry in the data set with normal healthy skin is recorded as “persisted in the niacin case up to six hours”. Further, in the data set with normal healthy skin (in vivo), the skin irritation entry was “causes skin irritation”.

`O=C(O)c1ccccc1O` [salicylic acid]: in the data set on normal healthy skin (2%), the “cumulative irritancy score (irritancy/erythema)” value was “did cause erythema”.

Take `CCOC(=O)c1ccc(C#Cc2ccc3c(c2)C(C)(C)CCS3)nc1` [tazarotene]: in the data set on IMQ on mouse skin, the “IMQ-induced increased thickness of epidermal and subcutaneous tissue” value is “exacerbated”; the thickness reduction result is on record as “ineffective”.
